From ChEMBL document CHEMBL3085700 (J Med Chem, 2013)

Experiments:
[1] = target: T1, Fatty-acid amide hydrolase 1 (Homo sapiens, UniProt O00519); assay: Inhibition of human recombinant FAAH overexpressed in African green monkey COS7 cells using [3H]-anandamide as substrate preincubated for 10 mins before substrate addition measured after 10 mins by liquid scintillation counting analysis; format: cell-based, COS-7
T1 sequence (O00519 whole entry): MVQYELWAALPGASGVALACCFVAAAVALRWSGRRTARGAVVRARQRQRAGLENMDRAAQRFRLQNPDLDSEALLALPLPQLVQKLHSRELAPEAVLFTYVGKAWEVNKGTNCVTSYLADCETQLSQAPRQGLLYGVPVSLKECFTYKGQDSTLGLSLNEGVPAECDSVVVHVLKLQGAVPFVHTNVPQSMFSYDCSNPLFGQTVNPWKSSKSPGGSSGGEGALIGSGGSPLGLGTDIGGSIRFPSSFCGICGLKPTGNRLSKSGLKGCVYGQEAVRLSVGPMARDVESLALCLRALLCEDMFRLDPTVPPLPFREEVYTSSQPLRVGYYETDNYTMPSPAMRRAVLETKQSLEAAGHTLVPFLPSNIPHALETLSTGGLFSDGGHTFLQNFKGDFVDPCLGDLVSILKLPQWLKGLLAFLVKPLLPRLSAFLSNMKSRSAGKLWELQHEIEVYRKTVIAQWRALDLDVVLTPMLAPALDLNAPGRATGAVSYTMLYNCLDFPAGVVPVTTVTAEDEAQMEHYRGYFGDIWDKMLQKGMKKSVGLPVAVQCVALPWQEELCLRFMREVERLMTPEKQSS

[2] = species on record: Homo sapiens; assay: Selectivity ratio for human recombinant FAAH over human recombinant MAGL
[3] = target: T2, Prostaglandin G/H synthase 2 (Homo sapiens) (UniProt P35354); assay: Inhibition of human recombinant COX-2 assessed as inhibition of 2-AG cyclooxygenation at 100 uM measured within 10 to 50 secs relative to control
T2 sequence (whole entry): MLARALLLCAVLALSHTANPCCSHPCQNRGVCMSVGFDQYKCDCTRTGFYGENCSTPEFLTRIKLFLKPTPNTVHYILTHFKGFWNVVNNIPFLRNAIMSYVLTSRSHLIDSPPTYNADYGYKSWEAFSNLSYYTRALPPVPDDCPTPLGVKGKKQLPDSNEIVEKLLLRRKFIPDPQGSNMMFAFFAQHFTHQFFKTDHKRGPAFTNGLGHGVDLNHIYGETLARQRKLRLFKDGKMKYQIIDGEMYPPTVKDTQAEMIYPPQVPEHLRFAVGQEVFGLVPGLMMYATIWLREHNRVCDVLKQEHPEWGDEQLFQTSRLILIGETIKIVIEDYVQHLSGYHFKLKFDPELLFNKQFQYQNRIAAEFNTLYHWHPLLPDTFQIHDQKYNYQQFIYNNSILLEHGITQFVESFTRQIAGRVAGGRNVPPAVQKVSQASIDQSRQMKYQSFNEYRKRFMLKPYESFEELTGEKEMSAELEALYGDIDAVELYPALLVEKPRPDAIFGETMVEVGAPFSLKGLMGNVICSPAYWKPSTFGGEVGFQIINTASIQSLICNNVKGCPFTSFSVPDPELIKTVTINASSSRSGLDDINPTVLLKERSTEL

[4] = target: T3, Fatty-acid amide hydrolase 1 (Mus musculus) (UniProt O08914); assay: Inhibition of TAMRA-FP-labeled FAAH in mouse brain membrane after 1 hr by fluorescent gel scanning assay; format: cell membranes
T3 sequence (whole entry): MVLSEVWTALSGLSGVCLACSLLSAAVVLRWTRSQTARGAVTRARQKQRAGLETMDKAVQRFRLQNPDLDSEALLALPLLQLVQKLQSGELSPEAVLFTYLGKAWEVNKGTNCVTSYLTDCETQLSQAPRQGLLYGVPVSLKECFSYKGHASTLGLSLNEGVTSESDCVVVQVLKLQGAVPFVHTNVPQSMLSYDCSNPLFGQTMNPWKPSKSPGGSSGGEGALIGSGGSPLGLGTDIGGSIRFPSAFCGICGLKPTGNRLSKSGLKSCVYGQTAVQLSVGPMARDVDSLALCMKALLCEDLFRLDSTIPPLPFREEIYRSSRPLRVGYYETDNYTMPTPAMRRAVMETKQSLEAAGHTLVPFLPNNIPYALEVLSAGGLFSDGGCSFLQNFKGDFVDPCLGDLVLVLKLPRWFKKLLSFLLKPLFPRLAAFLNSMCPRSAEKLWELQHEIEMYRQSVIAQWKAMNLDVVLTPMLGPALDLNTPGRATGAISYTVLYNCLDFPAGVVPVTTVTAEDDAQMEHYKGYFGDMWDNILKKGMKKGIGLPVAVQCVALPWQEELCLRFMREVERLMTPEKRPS

IC50 ([1]; read-out: IC50): 11 nM
IC50 ([1]; read-out: pIC50 (converted)): 11.5 nM
Selectivity ratio [2]: > 900
inhibition [3]: 30%
inhibition [4]: Dose-dependent effect
Structure (SMILES): COc1nn([C@@H](C)c2ccc(CC(C)C)cc2)c(=O)o1
